Assay results as given in US20140011799A1 (Bristol-Myers Squibb Company, priority 2012, published 2014).

Each compound was assayed against T1, Endothelial lipase (EL) (Homo sapiens, UniProt Q9Y5X9) (assay: Endothelial lipase (EL) enzymatic assay, fluorescent substrate A10070 in DMPG vesicles). Conditions: EL from conditioned media of HT-1080 cells; compound preincubated 30 min at 37° C; read-out: EL IC50.
T1 construct: HT-1080 cells that were transformed using RAGE technology (Athersys) to overexpress endogenous EL; endogenous in cells; conditioned medium used
T1 sequence (Q9Y5X9 21-500): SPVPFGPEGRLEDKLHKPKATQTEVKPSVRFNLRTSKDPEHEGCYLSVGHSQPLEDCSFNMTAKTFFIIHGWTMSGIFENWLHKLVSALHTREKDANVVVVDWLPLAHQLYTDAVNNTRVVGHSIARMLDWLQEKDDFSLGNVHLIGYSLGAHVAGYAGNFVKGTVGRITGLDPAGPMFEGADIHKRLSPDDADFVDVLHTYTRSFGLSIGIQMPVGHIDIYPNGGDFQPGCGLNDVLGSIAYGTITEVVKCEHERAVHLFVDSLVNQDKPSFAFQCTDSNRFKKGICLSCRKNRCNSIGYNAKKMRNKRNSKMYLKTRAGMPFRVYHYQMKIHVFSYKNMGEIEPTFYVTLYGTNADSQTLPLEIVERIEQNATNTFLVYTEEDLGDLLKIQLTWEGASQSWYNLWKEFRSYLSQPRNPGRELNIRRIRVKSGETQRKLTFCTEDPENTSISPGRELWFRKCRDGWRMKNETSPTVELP
Type: biochemical
Protocol: Endothelial lipase (EL) and hepatic lipase (HL) activities were measured using a fluorescent substrate, A10070, (Invitrogen, CA) doped into an artificial vesicle containing DMPG (Avanti Polar Lipids) as the excipient. Vesicles were prepared by combining 571 μL of 29 mM DMPG in a 1:1 mixture of MeOH and CHCl3 with 2000 μL of 1 mM A10070 in a 1:1 mixture of MeOH and CHCl3. The mixture was dried under nitrogen in multiple vials then resuspended in 20 mL total volume of 50 mM HEPES pH 8.0 buffer containing 50 mM NaCl and 0.2 mM EDTA. The sample was allowed to sit at room temperature for 15 min and then was sonicated 3×4 mins on ice with a Branson Sonicator using duty cycle 1. This preparation provides vesicles with a mole fraction of 0.11 for the FRET substrate.
The enzymatic assay was measured using 384-well white Optiplates. Each well contained 20 μL of assay buffer (50 mM HEPES pH 8.0, 50 mM NaCl and 1 mM CaCl2) and 0.25 μL of a DMSO solution containing a compound of interest. EL or HL (10 μL) was added and allowed to incubate with the compound for 30 min at 37° C. The source of EL was conditioned media obtained from HT-1080 cells that were transformed using RAGE technology (Athersys) to overexpress endogenous EL, and HL was partially purified from conditioned media obtained from COS cells overexpressing HL. The reaction was started by the addition of 10 μL of a 1:10 dilution of vesicles. The final total reaction volume was […]. The reaction rates were measured on a Gemini plate reader with an excitation wavelength of 490 nm and an emission wavelength of 530 nm. Readings were taken over a period of 60 minutes, and the slope between 300 and 900 secs of the readout was used to calculate the rate of the reaction.

| IC50 | SMILES |
| --- | --- |
| < 10 nM | CS(=O)(=O)C(c1nnc(CC2SC(=O)NC2=O)o1)c1nc2ccc(-c3ccc(C(=O)N4CCOCC4)cc3)cc2s1 (stereo not drawn) [Example 2, 5-((5-((methylsulfonyl)(6-(4-(4-morpholinylcarbonyl)phenyl)-1,3-benzothiazol-2-yl)methyl)-1,3,4-oxadiazol-2-yl)methyl)-1,3-thiazolidine-2,4-dione] |
| 30 nM | CC1(Cc2nnc(C(c3nc4ccc(-c5ccc(C(=O)N6CCOCC6)cc5)cc4s3)S(=O)(=O)Cc3ccccc3)o2)NC(=O)NC1=O (stereo not drawn) [Example 5, 5-((5-((benzylsulfonyl)(6-(4-(morpholine-4-carbonyl)phenyl)benzo[d]thiazol-2-yl)methyl)-1,3,4-oxadiazol-2-yl)methyl)-5-methylimidazolidine-2,4-dione] |
| 62 nM | CC1(Cc2nnc(C(c3nc4ccc(-c5ccc(C(=O)N6CCOCC6)cc5)cc4s3)S(=O)(=O)Cc3ccccc3)o2)NC(=O)NC1=O (stereo not drawn) [Example 8, 5-((5-((benzylsulfonyl)(6-(4-(morpholine-4-carbonyl)phenyl)benzo[d]thiazol-2-yl)methyl)-1,3,4-oxadiazol-2-yl)methyl)-5-methylimidazolidine-2,4-dione] |
| < 10 nM | Cc1nn(C)cc1-c1ccc2nc(C(c3nnc(CC4SC(=O)NC4=O)o3)S(C)(=O)=O)sc2c1 (stereo not drawn) [Example 20, 5-((5-((6-(1,3-dimethyl-1H-pyrazol-4-yl)benzo[d]thiazol-2-yl)(methylsulfonyl)methyl)-1,3,4-oxadiazol-2-yl)methyl) thiazolidine-2,4-dione] |
| < 10 nM | Cn1cc(-c2ccc3nc(C(c4nnc(CC5SC(=O)NC5=O)o4)S(C)(=O)=O)sc3c2)cn1 (stereo not drawn) [Example 24, 5-((5-((6-(1-methyl-1H-pyrazol-4-yl)benzo[d]thiazol-2-yl)(methylsulfonyl)methyl)-1,3,4-oxadiazol-2-yl)methyl) thiazolidine-2,4-dione] |
| < 10 nM | Cc1nccn1-c1nc(-c2ccc3nc(C(c4nnc(CC5SC(=O)NC5=O)o4)S(C)(=O)=O)sc3c2)cs1 (stereo not drawn) [Example 25, 5-((5-((6-(2-(2-methyl-1H-imidazol-1-yl)thiazol-4-yl)benzo[d]thiazol-2-yl)(methylsulfonyl)methyl)-1,3,4-oxadiazol-2-yl)methyl) thiazolidine-2,4-dione] |
| < 10 nM | CS(=O)(=O)C(c1nnc(CS(=O)(=O)O)o1)c1nc2ccc(-c3ccccc3)cc2s1 (stereo not drawn) [Example 28, (5-((methylsulfonyl) (6-phenyl-1,3-benzothiazol-2-yl)methyl)-1,3,4-oxadiazol-2-yl) methanesulfonic acid] |
| < 10 nM | CS(=O)(=O)C(c1nnc(CC2SC(=O)NC2=O)o1)c1nc2ccc(-c3ccccc3)cc2s1 (stereo not drawn) [Example 31, 5-((5-((methylsulfonyl) (6-phenyl-1,3-benzothiazol-2-yl)methyl)-1,3,4-oxadiazol-2-yl)methyl)-1,3-thiazolidine-2,4-dione] |
| < 10 nM | O=C(OCc1ccccc1)N1CCC(S(=O)(=O)C(c2nnc(CS(=O)(=O)O)o2)c2nc3ccc(-c4ccccc4)cc3s2)CC1 (stereo not drawn) [Example 32, (5-(((1-((benzyloxy)carbonyl)-4-piperidinyl)sulfonyl)(6-phenyl-1,3-benzothiazol-2-yl)methyl)-1,3,4-oxadiazol-2-yl)methanesulfonic acid] |
| < 10 nM | O=S(=O)(CCC(F)(F)F)NS(=O)(=O)Cc1nnc(C(c2nc3ccc(-c4ccccc4)cc3s2)S(=O)(=O)CCC(F)(F)F)o1 (stereo not drawn) [Example 36, 3,3,3-trifluoro-N-(((5-((6-phenylbenzo[d]thiazol-2-yl)((3,3,3-trifluoropropyl)sulfonyl)methyl)-1,3,4-oxadiazol-2-yl)methyl)sulfonyl)propane-1-sulfonamide] |

More lines, now with the values behind:

| SMILES | IC50 |
| --- | --- |
| CC1(Cc2nnc(Cc3nc4ccc(-c5ccccc5)cc4s3)o2)NC(=O)N(CC(F)(F)F)C1=O (single isomer, unassigned; isomer b) [Example 26, 5-Methyl-5-((5-((6-phenylbenzo[d]thiazol-2-yl)methyl)-1,3,4-oxadiazol-2-yl)methyl)-3-(2,2,2-trifluoroethyl)imidazolidine-2,4-dione (Isomer B)] | < 10 nM |
| CS(=O)(=O)C(c1nnc(CC2SC(=O)NC2=O)o1)c1nc2ccc(-c3ccc(F)nc3)cc2s1 (stereo not drawn) [Example 3, 5-((5-((6-(6-fluoro-3-pyridinyl)-1,3-benzothiazol-2-yl)(methylsulfonyl)methyl)-1,3,4-oxadiazol-2-yl)methyl)-1,3-thiazolidine-2,4-dione] | < 10 nM |
| O=S(=O)(O)Cc1nnc(C(c2nc3ccc(-c4ccc(OCc5ccccc5)cc4)cc3s2)S(=O)(=O)CCC(F)(F)F)o1 (stereo not drawn) [Example 11, (5-((6-(4-(benzyloxy)phenyl)benzo[d]thiazol-2-yl)((3,3,3-trifluoropropyl)sulfonyl)methyl)-1,3,4-oxadiazol-2-yl)methanesulfonic acid] | > 10 nM |
| CS(=O)(=O)C(c1nnc(CC2NC(=O)NC2=O)o1)c1nc2ccc(-c3ccc(C(=O)N4CCOCC4)cc3)cc2s1 (stereo not drawn) [Example 16, 5-((5-((methylsulfonyl)(6-(4-(morpholine-4-carbonyl)phenyl)benzo[d]thiazol-2-yl)methyl)-1,3,4-oxadiazol-2-yl)methyl)imidazolidine-2,4-dione] | 46 nM |
| Cc1noc(C)c1-c1ccc2nc(C(c3nnc(CC4SC(=O)NC4=O)o3)S(C)(=O)=O)sc2c1 (stereo not drawn) [Example 19, 5-((5-((6-(3,5-dimethylisoxazol-4-yl)benzo[d]thiazol-2-yl)(methylsulfonyl)methyl)-1,3,4-oxadiazol-2-yl)methyl) thiazolidine-2,4-dione] | < 10 nM |
| CC1(Cc2nnc(C(c3nc4ccc(-c5ccccc5)cc4s3)S(C)(=O)=O)o2)NC(=O)NC1=O (stereo not drawn) [Example 29, 5-methyl-5-((5-((methylsulfonyl)(6-phenyl-1,3-benzothiazol-2-yl)methyl)-1,3,4-oxadiazol-2-yl)methyl)-2,4-imidazolidinedione] | < 10 nM |
| CS(=O)(=O)C(c1nnc(CC2NC(=O)NC2=O)o1)c1nc2ccc(-c3ccccc3)cc2s1 (stereo not drawn) [Example 30, 5-((5-((methylsulfonyl) (6-phenyl-1,3-benzothiazol-2-yl)methyl)-1,3,4-oxadiazol-2-yl)methyl)-2,4-imidazolidinedione] | 16 nM |
| CC(C)(C)OC(=O)N1CC(c2nnc(C(c3nc4ccc(-c5ccccc5)cc4s3)S(=O)(=O)Cc3ccccc3)o2)C1 (stereo not drawn) [Example 33, tert-butyl 3-(5-((benzylsulfonyl) (6-phenylbenzo[d]thiazol-2-yl)methyl)-1,3,4-oxadiazol-2-yl)azetidine-1-carboxylate] | 14 nM |
| O=S(=O)(O)Cc1nnc(C(c2nc3ccc(-c4ccccc4)cc3s2)S(=O)(=O)Cc2ccc(F)cc2)o1 (stereo not drawn) [Example 34, (5-(((4-fluorobenzyl)sulfonyl)(6-phenylbenzo [d]thiazol-2-yl)methyl)-1,3,4-oxadiazol-2-yl)methanesulfonic acid] | 131 nM |
| NS(=O)(=O)Cc1nnc(C(c2nc3ccc(-c4ccccc4)cc3s2)S(=O)(=O)CCC(F)(F)F)o1 (stereo not drawn) [Example 35] | < 10 nM |
| NS(=O)(=O)Cc1nnc(C(c2nc3ccc(-c4ccccc4)cc3s2)S(=O)(=O)Cc2ccccc2)o1 (stereo not drawn) [Example 37, (5-((benzylsulfonyl)(6-phenylbenzo[d]thiazol-2-yl)methyl)-1,3,4-oxadiazol-2-yl)methanesulfonamide] | < 10 nM |
